Reference: patent publication US9957272B2, “3-hydroxypyrrolidine inhibitors of 5′-methylthioadenosine phosphorylase and nucleosidase” (priority 2009, dated 2018)
Read-outs that look alike come from different tables or passages of the source.

Tests used:
[1] = molecular target: T1, E. coli MTAN (Escherichia coli, UniProt P0AF12); assay: biochemical; type: biochemical
T1 construct: made in house
Procedure: After removal of cell debris by centrifugation, the soluble cell lysates are loaded onto nickel-charged chelating Sepharose (GE Healthcare) and washed with lysis buffer containing 20-150 mM imidazole. The 6His-MTANs are eluted in 250 mM imidazole, desalted using a Sephadex G-15 (GE Healthcare) gel filtration column, equilibrated with low salt buffer (100 mM HEPES, 30 mM KCL, pH 7.6) and concentrated to 40 mg/mL.
Briefly, all experiments are carried out at 25° C., in 1 mL total reaction volume containing 100 mM HEPES buffer, pH 7.5 and 50 mM KCl with 5′-deoxymethylthioadenosine (MTA) as substrate. […] For measuring dissociation constant (Kd) of inhibitors, a xanthine oxidase-coupled assay is carried out. […] Control experiments are carried out in the absence of either inhibitor or MTAN.
[formula] where vs^t and vs are steady state rates in the presence, and absence of inhibitor, respectively; Km is substrate Michaelis constant which is obtained as described above; [S] and [I] are the concentrations of the substrate MTA and inhibitor, respectively. If the concentration of inhibitor is smaller than 10-fold concentration of enzymes, the following correction is then applied: r=I′−(1−v0′/v0)Et
All data fitting is carried out with KaleidaGraph™ ver. 3.5 (Synergy Software).

[2] = molecular target: T2, human MTAP (Homo sapiens, UniProt Q13126); assay: Inhibition of human MTAP, continuous spectrophotometric assay; type: biochemical
T2 construct: made in house
T2 sequence (Q13126 1-283): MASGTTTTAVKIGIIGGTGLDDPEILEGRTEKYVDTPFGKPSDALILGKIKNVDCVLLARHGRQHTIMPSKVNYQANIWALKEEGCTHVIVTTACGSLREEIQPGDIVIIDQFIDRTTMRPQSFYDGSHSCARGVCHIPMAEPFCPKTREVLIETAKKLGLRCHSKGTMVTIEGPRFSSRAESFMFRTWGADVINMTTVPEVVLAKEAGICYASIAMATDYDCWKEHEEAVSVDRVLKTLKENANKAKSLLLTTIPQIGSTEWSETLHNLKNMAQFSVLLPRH
Excerpt: Continuous spectrophotometric assays are used to characterize the compounds of the invention and […] inhibition of MTAP.

[3] = 25° C., pH 7.5, MTA as substrate, read-out: Inhibition (Ki) E. coli MTAN
[4] = read-out: Inhibition (Ki) Human MTAP

Compound	Ki [2] [nM]	other results
Nc1ncnc2c(CN3C[C@@H](O)[C@H](c4c[nH]nn4)C3)c[nH]c12 (racemic) [Example 15, (±)-trans-1-[(9-Deaza-adenin-9-yl)methyl]-3-hydroxy-4-(1H-1,2,3-triazol-4-yl)pyrrolidine]	–	Ki [1, 3]: 2 ± 0.2 nM; Ki [2, 4]: 59 ± 8 nM
Nc1ncnc2c(CN3C[C@@H](O)[C@H](c4ccccc4)C3)c[nH]c12 (racemic) [Example 1, (±)-trans-1-[(9-Deaza-adenin-9-yl)methyl]-3-hydroxy-4-phenylpyrrolidine]	4.3 ± 0.6	–
Nc1ncnc2c(CN3C[C@@H](CCCSCc4ccccc4)[C@H](O)C3)c[nH]c12 (racemic) [Example 16, (±)-trans-4-[3-(Benzylthio)propyl]-1-[(9-deaza-adenin-9-yl)methyl]-3-hydroxypyrrolidine]	71 ± 5	Selectivity for bacterial MTAN [1]: some selectivity for bacterial MTAN
Nc1ncnc2c(CN3C[C@@H](O)[C@H](c4cn(Cc5ccccc5)nn4)C3)c[nH]c12 (racemic) [Example 14, (±)-trans-4-(1-Benzyl-1H-1,2,3-triazol-4-yl)-1[(9-deaza-adenin-9-yl)methyl]-3-hydroxypyrrolidine]	–	Inhibition of Human MTAP ([2]; at 2.5 μM): ^a (indicates no inhibition observed at 2.5 μM)
CC[C@@H]1CN(Cc2c[nH]c3c(N)ncnc23)C[C@H]1O (racemic) [Example 11, (±)-trans-1-[(9-Deaza-adenin-9-yl)methyl]-4-ethyl-3-hydroxypyrrolidine]	8.6 ± 1	Ki [1]: 0.31 ± 0.02 nM
CCC(CC)[C@@H]1CN(Cc2c[nH]c3c(N)ncnc23)C[C@H]1O (racemic) [Example 10, (±)-trans-1-[(9-Deaza-adenin-9-yl)methyl]-3-hydroxy-4-(pent-3-yl)pyrrolidine]	> 5000	Ki [1]: 0.7 ± 0.1 nM
CCCC[C@@H]1CN(Cc2c[nH]c3c(N)ncnc23)C[C@H]1O (racemic) [Example 8, (±)-trans-1-[(9-Deaza-adenin-9-yl)methyl]-4-butyl-3-hydroxypyrrolidine]	> 5000	Ki [1, 3]: 0.051 ± 0.003 nM
C#C[C@@H]1CN(Cc2c[nH]c3c(N)ncnc23)C[C@H]1O (racemic) [Example 7, (±)-3,4-trans-1-[(9-Deaza-adenin-9-yl)methyl]-4-ethynyl-3-hydroxypyrrolidine]	–	Ki [1, 3]: 0.39 ± 0.02 nM; Ki [2, 4]: 31 ± 3 nM
CCCC[C@H]1CN(Cc2c[nH]c3c(N)ncnc23)C[C@@H]1O [Example 17, (3R,4S)-4-Butyl-1-[(9-deaza-adenin-9-yl)methyl]-3-hydroxypyrrolidine]	–	Ki [2, 4]: 0.55 ± 0.07 nM
CC[C@H]1CN(Cc2c[nH]c3c(N)ncnc23)C[C@H]1O (racemic) [Example 18, (±)-cis-1-[(9-Deaza-adenin-9-yl)methyl]-4-ethyl-3-hydroxypyrrolidine]	34 ± 3	Ki [1, 3]: 1.8 ± 0.3 nM
Nc1ncnc2c(CN3C[C@@H](CC4CCCCC4)[C@H](O)C3)c[nH]c12 (racemic) [Example 2, (±)-trans-4-(Cyclohexylmethyl)-1-[(9-deaza-adenin-9-yl)methyl]-3-hydroxy-pyrrolidine]	> 5000	–

Now from value to molecule, other results behind:

Ki [2] [nM]	Compound	other results
8.7 ± 1	C=C[C@@H]1CN(Cc2c[nH]c3c(N)ncnc23)C[C@H]1O (racemic) [Example 5, (±)-trans-1-[(9-Deaza-adenin-9-yl)methyl]-3-hydroxy-4-vinylpyrrolidine]	–
5.8 ± 0.7	Nc1ncnc2c(CN3C[C@@H](O)[C@H](C4CC4)C3)c[nH]c12 (racemic) [Example 4, (±)-trans-4-Cyclopropyl-1-[(9-deaza-adenin-9-yl)methyl]-3-hydroxypyrrolidine]	–
14.3 ± 1.7	C=CC[C@@H]1CN(Cc2c[nH]c3c(N)ncnc23)C[C@H]1O (racemic) [Example 6, (±)-trans-4-Allyl-1-[(9-deaza-adenin-9-yl)methyl]-3-hydroxypyrrolidine]	–
6 ± 0.4	CC(C)C[C@@H]1CN(Cc2c[nH]c3c(N)ncnc23)C[C@H]1O (racemic) [Example 9, (±)-trans-1-[(9-Deaza-adenin-9-yl)methyl]-3-hydroxy-4-isobutylpyrrolidine]	–
> 5000	CC[C@H]1CN(Cc2c[nH]c3c(N)ncnc23)C[C@@H]1O [Example 12]	–
2.4 ± 0.4	Nc1ncnc2c(CN3C[C@@H](O)[C@H](C4CCCC4)C3)c[nH]c12 (racemic) [Example 13, (±)-trans-4-Cyclopentyl-1-[(9-deaza-adenin-9-yl)methyl]-3-hydroxypyrrolidine]	–
